Here are results for five compounds from US20240382484A1, “COMPOSITION FOR TREATING, PREVENTING, OR AMELIORATING MELANOMA AND METHOD THEREOF” (Thomas Jefferson University, priority 2021, published 2024).

For assay [1], the system named is human NRAS mutant melanoma cell lines. Briefly: 72 hours drug combination, cell density by IncuCyte, synergy by Combenefit with Loewe method. It counts as cell-based. Conditions: for synergy with MEKi (trametinib): WM1361A and WM1366 cells, 72 hours.
Experimental: FIG. 10A-10B: Cas9 expressed clone WM1361A-iCas9 #1 (FIG. 10A), and WM1366-iCas9 #11 (FIG. 10B) cells were treated for 72 hours as indicated with GSK2334470 and trametinib and analyzed for cell density by IncuCyte. Synergy graphs were generated utilizing Combenefit Software with Loewe method. Data are represented as the mean from three biological independent experiments.
FIG. 11A: WM1361A, WM1366, SK-MEL-30 and SK-MEL-173 cells were treated for 72 hours as indicated with GSK2334470 and PD0325901 and analyzed for cell density by IncuCyte. Synergy graphs were generated utilizing Combenefit Software with Loewe method. Data are represented as the mean from three biological independent experiments. FIG. 11B: WM1361A, WM1366, SK-MEL-30 or SK-MEL-173 cells were treated with GSK2334470 (PDPK1i) and PD0325901 (PD901) alone or in combination (Comb) at the indicated concentrations for 7 days. Cell growth was monitored by IncuCyte every 2 hours. Data are represented as the mean±SEM of three biological independent experiments. p values were calculated with an unpaired two-tailed t test. n.s., not significant.
FIG. 16A: WM1361A and WM1366 cells were treated for 72 hours with indicated inhibitors and analyzed for cell density by IncuCyte. Synergy graphs were generated utilizing Combenefit Software with Loewe method. Data are represented as the mean from three biological independent experiments.
Human WM1361A and WM1366 melanoma cell lines were cultured in MCDB153 (Sigma) with 2% FBS, 20% Leibowitz L-15 medium, and 5 μg/mL insulin (WM medium). Human SK-MEL-30 and SK-MEL-173 melanoma cell lines were cultured in RPMI-1640 with 10% FBS. […] All cells were cultured at 37° C. in a humidified atmosphere containing 5% CO2. […] Cell lines were STR analyzed, confirmed for NRAS/Nras mutation, and tested to be mycoplasma-free during experiments. For cell proliferation and drug response, cells were monitored by IncuCyte® (Essen Bioscience, Ann Arbor, MI) every 2 hours.
The test system of a further assay is NRAS mutant melanoma. The conditions noted are these: Phase III, NRAS mutant melanoma patients; cited from earlier work.
The subject of assay [2] is mouse Nras mutant melanoma cell lines. Briefly: 72 hours drug combination, cell density by IncuCyte, synergy by Combenefit with Loewe method. Format: cell-based. Conditions: two mouse lines (1007 and 1014), 3-day treatment. The protocol:
FIG. 2A: NRAS mutant melanoma cell line WM1361A, WM1366, SK-MEL-30, SK-MEL-173, 1007 and 1014 were treated for 72 hours as indicated with GSK2334470 and trametinib and analyzed for cell density by IncuCyte. Synergy graphs were generated utilizing Combenefit Software with Loewe method. Data are represented as the mean from three biological independent experiments. FIG. 2B: WM1361A, WM1366, SK-MEL-30 or SK-MEL-173 cells were treated with GSK2334470 (PDPK1i) and trametinib (tram) alone or in combination (comb) at the indicated concentrations for 7 days. Cell growth was monitored by IncuCyte every 2 hours. Media were replaced twice with drugs during culture. Data are represented as the mean±SEM of three biological independent experiments. p values were calculated with an unpaired two-tailed t test. n.s., not significant.
To further analyze synergistic effects, the growth response of a panel of several NRAS mutant cells to titrated PDPK1i (GSK2334470) and MEKi (trametinib) combinations was assessed.
Human WM1361A and WM1366 melanoma cell lines were cultured in MCDB153 (Sigma) with 2% FBS, 20% Leibowitz L-15 medium, and 5 μg/mL insulin (WM medium). […] Cell lines were STR analyzed, confirmed for NRAS/Nras mutation, and tested to be mycoplasma-free during experiments. For cell proliferation and drug response, cells were monitored by IncuCyte® (Essen Bioscience, Ann Arbor, MI) every 2 hours.

The subject of another assay is WM1361A-iCas9 #1 cells. Kind of assay: Growth inhibition by single agents or combined inhibitors for 3 days, Bliss independence model. Format: cell-based, human. The protocol: FIGS. 1A-1H: CRISPR screen identifies PDPK1, in accordance with some embodiments. FIG. 1A: Workflow of the CRISPR-Cas9 screen for genes that are essential for cell survival or act as regulators of trametinib (MEKi) sensitivity and resistance in NRAS mutant melanoma WM1361A-iCas9 #1 cells. FIGS. 1B-1D: WM1361A-iCas9 #1 cells were transduced with the Guide-it CRISPR Genome-Wide sgRNA Library. After 3 days, mCherry positive cells were determined by FACS analysis (FIG. 1). On the 24th day post infection, the cells were treated with 20 nM trametinib for further 14 days (FIG. 1C) or 0.01-0.02 nM trametinib for further 28 days (FIG. 1D). The top enriched or depleted sgRNAs targeted genes are shown. FIG. 1E, The top depleted sgRNAs targeted genes before trametinib treatment. FIG. 1F: WM1361A-iCas9 #1 cells were treated with single agents or combined inhibitors for 3 days. The growth inhibition was shown as observed inhibition (left), or was calculated as Bliss independence model (middle). The synergistic or antagonist effects (right) were calculated as Observed inhibition %−Expected inhibition %. […]
The present study further analyzed druggable essential genes with high STARS scores (>2.14 of NRAS) in WM1361A-iCas9 cells which were also identified as therapeutic targets with high priority scores (>30) in NRAS mutant melanoma SK-MEL-2 cells in a published database. […]

With `COc1ccc(-c2ccc3c(N4CCOC[C@@H]4C)nc(N4CCOC[C@@H]4C)nc3n2)cc1CO` [AZD8055], the “synergy with MEKi (trametinib)” value in assay [1] was “reduced synergy and even antagonistic effects”.
As for `Cn1cnc2c(F)c(Nc3ccc(Br)cc3F)c(C(=O)NOCCO)cc21` [Binimetinib, 5-((4-bromo-2-fluorophenyl)amino)-4-fluoro-N-(2-hydroxyethoxy)-1-methyl-1H-benzo[d]imidazole-6-carboxamide], in the assay on NRAS mutant melanoma, the “progression-free survival over standard chemotherapy (dacarbazine)” value is reported as “modest advantage”.
Take `Cc1nc(-c2cn3c(n2)-c2ccc(-c4cnn(C(C)(C)C(N)=O)c4)cc2OCC3)n(C(C)C)n1` [GDC-0032]: in assay [1], the “synergy with MEKi (trametinib)” value was “synergy with trametinib comparable to those with PDPK1i”.
On to `CNc1nc(-c2ccc3c(N)n[nH]c3c2)cc(N2C[C@@H](C(=O)NC3CCCCC3)CC[C@H]2C)n1` [GSK2334470, (3S,6R)-1-[6-(3-Amino-1H-indazol-6-yl)-2-(methylamino)-4-pyrimidinyl]-N-cyclohexyl-6-methyl-3-piperidinecarboxamide], for which the “synergistic inhibition of cell viability, PDPK1i (GSK2334470) and MEKi (trametinib) combinations” value in assay [2] is “Synergistic inhibition”; in assay [1] (two Cas9-expressed cell lines and four parental human lines (WM1361A, WM1366, SK-MEL-30, SK-MEL-173), 3-day treatment) it was “Synergistic inhibition”. In addition, the “synergy with MEKi (trametinib) on growth inhibition” value in the assay on WM1361A-iCas9 #1 cells is “synergistic”.
Consider `Cl.Cl.NC1(c2ccc(-c3nc4ccn5c(=O)[nH]nc5c4cc3-c3ccccc3)cc2)CCC1` [MK-2206 2HCl], for which the “synergy with MEKi (trametinib)” value in assay [1] is “reduced synergy and even antagonistic effects”.
